The source made the active and inactive calls. The calls are words filed in the database; no cut-off is given here.
What was measured:
Helicobacter pylori [1] = assay: Antimicrobial activity against Helicobacter pylori clinical isolate expressing 23S rRNA A2142G mutant by Etest; type: functional
Helicobacter pylori [2] = assay: Antimicrobial activity against Helicobacter pylori clinical isolate expressing 23S rRNA A2143G mutant by Etest; type: functional, organism-based
Helicobacter pylori [3] = assay: Antimicrobial activity against Helicobacter pylori clinical isolate by Etest; type: functional, organism-based

| SMILES | MIC (Helicobacter pylori [1]) | Activity (Helicobacter pylori [2]) | Activity (Helicobacter pylori [3]) |
| --- | --- | --- | --- |
| CC[C@H]1OC(=O)[C@H](C)[C@@H](O[C@H]2C[C@@](C)(OC)[C@@H](O)[C@H](C)O2)[C@H](C)[C@@H](O[C@@H]2O[C@H](C)C[C@H](N(C)C)[C@H]2O)[C@](C)(OC)C[C@@H](C)C(=O)[C@H](C)[C@@H](O)[C@]1(C)O [CLARITHROMYCIN] | > 256 mg/L | inactive | – |
| CN(C)[C@@H]1C(O)=C(C(N)=O)C(=O)[C@@]2(O)C(O)=C3C(=O)c4c(O)cccc4[C@@](C)(O)[C@H]3C[C@@H]12 | – | – | Active |

From ChEMBL document CHEMBL1649575, “Antimicrobial susceptibility and mutations involved in clarithromycin resistance in Helicobacter pylori isolates from patients in the western central region of Colombia” (2009)
